In this test the test system is human fibroblast cell line (CCD-966SK). Briefly: Assay in increasing expression of genes: human fibroblast cells cultured with peptides, RNA detected by nCounter Analysis System. The format is cell-based. The method, then:
A human fibroblast cell line (CCD-966SK) was used to assay gene expression affected by the peptides of the present disclosure. 1×10^5 of fibroblast cells were seeded and cultured in a 6-well plate containing 2 ml of X-VIVO™ 10 medium. […] The cells cultured with the medium only for 6 or 24 hours were used as control.
The resulting cultured cells were washed with PBS and lysed by adding a lysis reagent. The resulting cell lysis solutions were extracted by RNA Extraction Kit (GENEzol™ 96 Well TriRNA Pure Kit, Geneaid) to collect the RNAs in the cells. The expression of genes was detected by the nCounter Analysis System (NanoString Technologies, Inc.)

The mark [1] stands for this setting: peptides 12.5 and 25 μg/ml, 6 or 24 hours.
Where [2] appears, read: 12.5 μg/ml, 24 hours, vs control.

Take “QKRRTCK [Heter-7, synthetic 7-mer peptide QKRRTCK]”: the MMP1 result (2.5 μg/ml, 12 hours, vs control) is listed as “inhibiting”. For the same substance, where the note is “12.5 μg/ml, vs control”, the “expression of collagen I gene” value was “increases”. For the same substance, where the note is “25 μg/ml, 12 hours, vs control”, the “expression of TIMP1 gene” value is on record as “increases”; the “expression of anti-aging genes (Atg1 and Ub15)” value is on record as “increase”; the “expression of telomerase gene (TERC)” value was “increase”. For the setting “25 μg/ml, vs control”, the “expression of DNA repair genes (ERCC1 and XRCC5)” value is given as “increase”; the “expression of anti-oxidation gene SOD2” value is “increase”. Also, for the setting “peptides 12.5 and 25 μg/ml”, the “expression of DNA repair genes (ERCC1 and XRCCS)” value is reported as “increases”; the “expression of anti-aging genes (Atg1 and Ubl5)” value was “increases”; the “expression of anti-oxidation gene SOD2” value is on record as “increases”. For the same substance, under setting [1], the “expression of TIMP1” value was “increases”, the “expression of collagen I gene” value is reported as “increases”, the “expression of genes relating to collagen breakdown (MMP-1)” value (shortened to “expression of genes relating”) is listed as “inhibiting” and the “expression of telomerase genes (TERC)” value is recorded as “increases”.

Turning to “PRPIK [Hapa-5, synthetic 5-mer peptide PRPIK]”, under setting [2], the “expression of DNA repair genes (ERCC1)” value is recorded as “increase” and the “expression of telomerase genes (TERC)” value is “increase”. Moreover, for the setting “25 μg/ml, 24 hours, vs control”, the “expression of anti-aging genes (Atg1, Ub1-5 and FOXO)” value is given as “increase”; the “expression of genes relating” value is “inhibits”. Under “6 hours, vs control”, the “expression of TIMP1” value was “increases”, the “expression of collagen IV genes (COL4A1)” value was “increases” and the “expression of elastin genes (ELN)” value was “increases”. In addition, under setting [1], the “expression of DNA repair genes (ERCC1)” value is on record as “increase”; the “expression of TIMP1” value is “increase”; the “expression of anti-aging genes (Atg1, Ubl-5 and FOXO)” value was “increase”; the “expression of collagen IV gene” value is listed as “increase”. Further, under setting [1], the “expression of elastin genes” value is reported as “increase”; the “expression of genes relating” value is “inhibits”; the “expression of moisture-retention related genes (ELG-F and GBA)” value was “increase”; the “expression of telomerase genes (TERC)” value is given as “increase”. The “expressions of moisture-retention related genes (ELG-F and GBA)” value (vs control, concentration not given) is “increase”.

For the substance “VKNAKY [Hapa-6, synthetic 6-mer peptide VKNAKY]”, where the note is “12.5 μg/ml, 6 hours, vs control”, the “expression of anti-aging genes (Atg1, Ub1-5 and FOXO)” value is given as “increase”. For the same substance, the “expression of genes relating” value under setting [2] is recorded as “inhibits”. Further, under “25 μg/ml, vs control”, the “expressions of moisture-retention related genes (ELG-F and GBA)” value was “increase”. Under “12.5 and 25 μg/ml, 6 hours, vs control”, the “expression of DNA repair genes (ERCC1)” value is recorded as “increase”. Further, the “expression of telomerase genes (TERC)” value (12.5 and 25 μg/ml, 24 hours, vs control) is “increase”. Also, where the note is “6 hours, vs control”, the “expression of TIMP1” value was “increase” and the “expression of elastin genes (ELN)” value is recorded as “increase”. For the same substance, for the setting “24 hours, vs control”, the “expression of collagen I genes (COL1A2)” value was “increase”. In addition, under setting [1], the “expression of DNA repair genes (ERCC1)” value is “increase”; the “expression of TIMP1” value is on record as “increase”; the “expression of anti-aging genes (Atg1, Ubl-5 and FOXO)” value is on record as “increase”; the “expression of collagen I gene” value was “increase”. Further, under setting [1], the “expression of elastin genes” value is “increase”; the “expression of genes relating” value was “inhibits”; the “expression of moisture-retention related genes (ELG-F and GBA)” value is “increase”; the “expression of telomerase genes (TERC)” value is on record as “increase”.

On to “TKSGKF [Latrol-6, synthetic 6-mer peptide TKSGKF]”, for which the “expression of SMPD1 (moisture-retention related gene) and/or HAS2” value (25 μg/ml, 6 hours, vs control) was “increases”. Where the note is “25 μg/ml, 24 hours, vs control”, the “expression of anti-aging genes (NADSYN, Atgl, MRPS5)” value is on record as “increases”; the “expression of collagen I gene (COL1A1)” value is “increases”; the “expression of collagen IV gene (COL4A1)” value is listed as “increases”; the “expression of elastin gene (ELN)” value is recorded as “increases”. Moreover, the “expression of DNA repair genes (UNG and MSH6)” value (6 hours or 24 hours, vs control) is recorded as “increases”. Also, under “6 hours, vs control”, the “expression of telomerase genes (TERC)” value was “increase”. In addition, under setting [1], the “expression of DNA repair genes (UNG, MSH6, XRCCS and/or MSH6)” value was “increase”; the “expression of SMPD1 (moisture-retention related genes) and/or HSAS2” value is “increases”; the “expression of anti-aging genes (NADSYN, Atg1, MRPS5, CCT2 and/or CCT8)” value is recorded as “increase”; the “expression of collagen I gene” value is “increases”. Besides, under setting [1], the “expression of collagen IV gene” value was “increases”, the “expression of elastin genes” value was “increases”, the “expression of genes relating” value was “inhibiting” and the “expression of telomerase genes (TERC)” value is “increase”. Besides, the “expression of collagen I gene” value (text summary referring to FIG. 12 (A)) is recorded as “increases”.

Regarding “LKSGR [Latrol-5, synthetic 5-mer peptide LKSGR]”, for the setting “25 μg/ml, 6 hours, vs control”, the “expression of anti-aging genes (NADSYN, CCT2 and CCT8)” value is listed as “increases”; the “expression of collagen I gene (COL1A2)” value is given as “increases”; the “expression of genes relating” value is listed as “inhibiting”. Where the note is “6 hours, vs control”, the “expression of DNA repair genes (XRCC5 and/or MSH6)” value is listed as “increases”. The “expression of telomerase genes (TERC)” value (24 hours, vs control) is given as “increase”. For the same substance, under setting [1], the “expression of DNA repair genes (UNG, MSH6, XRCCS and/or MSH6)” value is given as “increase”; the “expression of anti-aging genes (NADSYN, Atg1, MRPS5, CCT2 and/or CCT8)” value is given as “increase”; the “expression of telomerase genes (TERC)” value is recorded as “increase”.

As to “QRIKYIKP [Chiro-8, synthetic 8-mer peptide QRIKYIKP]”, the “expression of moisture-retention related genes (SMPD1)” value (12.5 μg/ml and 25 μg/ml, 24 hours, vs control) is reported as “increase”. Besides, the “expression of anti-aging genes (NADSYN, MRPS5, Ub1-5 and/or FOXO)” value under setting [2] is recorded as “increase”. Also, under “12.5 μg/ml, vs control”, the “expression of collagen I gene (COLA1)” value was “increases”, the “expression of collagen IV gene (COL4A1)” value was “increases” and the “expression of elastin gene (ELN)” value is given as “increases”. For the same substance, the “expression of anti-inflammatory factor IL-6” value (24 hours) was “inhibits”. In addition, the “expression of MMP1” value (24 hours, vs control) is “inhibiting”. Under setting [1], the “expression of anti-aging genes (NADSYN, MRPS5, Ub1-5 and/or FOXO)” value is recorded as “increase”; the “expression of anti-inflammatory factor IL-6” value was “inhibits”; the “expression of collagen I gene” value is recorded as “increases”; the “expression of elastin genes” value was “increases”. In addition, under setting [1], the “expression of genes relating” value was “inhibiting” and the “expression of moisture-retention related genes (SMPD1)” value is given as “increases”.

For “KIFKF [Chiro-5, synthetic 5-mer peptide KIFKF]”, the “expression of anti-aging genes (NADSYN, MRPS5, Ub1-5 and/or FOXO)” value under setting [2] is given as “increase”. In addition, where the note is “25 μg/ml, vs control”, the “expression of MMP1” value was “inhibiting” and the “expression of collagen I gene (COL1A2)” value is recorded as “increase”. Also, under setting [1], the “expression of anti-aging genes (NADSYN, MRPS5, Ub1-5 and/or FOXO)” value is “increase”; the “expression of collagen I gene” value was “increases”; the “expression of genes relating” value is on record as “inhibiting”.

(Values after patent publication US11746125B2, “Biomimetic peptides derived from biological source and their uses in retarding aging and improving skin” (TCI CO., LTD., priority 2019, dated 2023).)
